Experimental data published in patent US12582683B2, “Prostate neoantigens and their uses” (Jansen Biotech, Inc., priority 2019, dated 2026).

Tests used:
CD8+ and CD4+ T cells = assay: Endogenous autologous normal donor restimulation assay (Ad5-transduced dendritic cells plus autologous Pan-T cells); type: cell-based, human; details: Table 27, restimulation with overlapping 15-mer peptide pools, highest frequency across sixteen normal donors
Experimental: (5% CO2). The following day, DC cells were counted and plated in a 96 well round bottom microplate at a concentration of 30,000 viable cells per well. […] (5% CO2). […] Autologous CD3+ Pan-T cells isolated from human normal PBMCs were thawed using media.
Plates were incubated at 37° C. […] (5% CO2).
The cells were washed with PBS and stained with Live/Dead Fixable Aqua Dead Cell stain (Thermo-Fisher).

[1] = tested on: CD8+ T cells in PBMCs from patients with metastatic castrate-resistant prostate cancer; assay: Patient PBMC restimulation assay (in vitro immunogenicity of neoantigens); type: cell-based, human; design: Maximum frequency of TNFα+IFNγ+CD8+ T cells: unit not given here
Experimental: In Vitro Immunogenicity Assessment of Neoantigens (“Patient PBMC Restimulation Assay”)
PBMCs from human patients with metastatic castrate-resistant prostate cancer were thawed using media (RPMI 1640 supplemented with Glutamax, 10% HI FBS, and 1× Sodium Pyruvate). Cells were counted and plated in a 96 well round bottom microplate at a concentration of 250,000 viable cells per well. Lyophilized peptides were solubilized in 100% DMSO and diluted in media to 10 μg/mL. Neoantigen peptides were added in equal volume to PBMCs for a final concentration of 5 μg/mL. CEF Peptide Pool “Plus” (Cellular Technologies, Ltd.) was utilized as a positive control and DMSO at the same final concentration as the experimental peptides was utilized as a negative control. Human IL-15 (Peprotech) was added to all wells at final concentration of 10 ng/mL.
Plates were incubated at 37° C. (5% CO2) for a total of 13 days. Media was refreshed every 2 days with IL-15 (10 ng/mL final concentration) and IL-2 (R&D systems, 10 IU/mL final concentration). On day 12, PBMCs were re-stimulated with identical experimental peptides or controls, at same concentration as peptide stimulation on Day 1. After 1-hour incubation, protein Inhibitor Cocktail (eBioscience) was added to every well and plate was incubated overnight.
On day 13, cells were stained for intracellular flow cytometry analysis. The cells were washed with PBS and stained with Live/Dead Fixable Aqua Dead Cell stain (Thermo-Fisher). Following the live/dead stain, cells were blocked using Biotin-Free Fe Receptor Blocker (Accurate Chemical & Scientific Corp). Extracellular cellular flow panel (1 μL/antibody per well in 50 μL) consisted of CD3 PerCP-Cy5.5 (Biolegend), CD4 BV421 (Biolegend), and CD8 APC-Cy7 (Biolegend). After extracellular staining, cells were fixed using Foxp3/Transcription Factor Staining Buffer Set (eBioscience) and stained for intracellular proteins (1:50 dilution) using TNFα FITC (R&D Systems) and IFNγ BV785 (Biolegend). Cells were washed and resuspended in stain buffer and analyzed using a BD Celesta flow cytometer.
Flow cytometry cell staining analysis was completed using FlowJo v10. Cells were gated on live, singlet, CD3+ cells. The CD8+ T cells were analyzed for TNFα/IFNγ expression and the frequency of double positive TNFα/IFNγ CD8+ T cells was recorded. Responses were assessed to be positive when the frequency of double positive TNFα/IFNγ CD8+ T cells due to stimulation with an experimental peptide was increased greater than or equal to 2-fold over the DMSO only negative control for that patient. Peptides were analyzed in 1 to 7 patient samples.
The 9 mer fragments shown in Table 13 were assessed for their ability to activate T cells using the Patient PBMC restimulation assay described in Example 1 using TNFα and IFNγ production by CD8^+ T cells as a readout. Self-antigens shown in Table 15 were also used in the assays. […] PBMCs from ten patients were evaluated.

HLA-A*02:01 = HLA-A*02:01 (Homo sapiens, UniProt P04439, D140Y/D185E/D98H/E176V/E277Q/G131W/G231S/I119V/I121R/I166T/I218V/L300P/L318F/N151K/N90K/P208A/P217A/Q86G/Q94H/R138H/R169H/T345S); assay: In vitro binding of neoantigens to class I MHC (UV peptide exchange, HLA class I ELISA); details: 100% = same binding affinity as positive control peptide
Experimental: (§1) In Vitro Binding of Neoantigens to Class I MHC
(§2) The 9 mer peptides identified by bioinformatics analysis were analyzed for their binding propensities to 6 common HLA class I alleles (HLA-A*01:01, A*02:01, A*03:01, A*24:02, B*07:02, B*08:01). The principle of the method is briefly described below and consists of two parts, one involving exchange of peptide with a positive control induced by Ultraviolet (UV) radiation, and the second is an enzyme immunoassay to detect stable HLA-peptide and empty HLA complexes.
(§3) HLA-bound peptides are critical for the stability of the HLA complex.
(§4) The exchange efficiency between the peptide of interest and Pos was analyzed using an HLA class I ELISA. The combined technologies allowed the identification of ligands for an HLA molecule of interest which are potentially immunogenic.
(§5) The UV control represented UV-irradiation of conditional HLA class I complex in the absence of a rescue peptide. […] To this end streptavidin was bound onto polystyrene microtiter wells. After washing and blocking, HLA complex present in exchange reaction mixtures or ELISA controls was captured by the streptavidin on the microtiter plate via its biotinylated heavy chain. Non-bound material was removed by washing. Subsequently, horseradish peroxidase (HRP)-conjugated antibody to human B2M was added. […] In the latter case B2M was removed during the washing step. After removal of non-bound HRP conjugate by washing, a substrate solution was added to the wells. A coloured product formed in proportion to the amount of intact HLA complex present in the samples. After the reaction was terminated by the addition of a stop solution, absorbance was measured in a microtiter plate reader. […] Suboptimal HLA binding of peptides with a moderate to low affinity for HLA class I molecules can also be detected by this ELISA technique (Rodenko, B et al. (2006) Nature Protocols 1: 1120-32).
(§6) Binding of select neoepitopes to HLA-A*01:01, HLA-A* 02:01, HLA-A* 03:01, HLA-A*24:02, HLA-1B*07:02 and HLA-1B*08:01 was evaluated using the assay described in Example 1. […] As a criterion for further evaluation, peptides with an exchange rate of at least 10% with the corresponding Pos peptide for at least one of the 6 HLA alleles that we considered for further evaluation. […] Higher percentages correspond to stronger binding to the HLA allele.

HLA-A*24:02 = HLA-A*24:02 (Homo sapiens, UniProt P04439, D101N/D140Y/D185E/E176V/E190D/F33S/G103R/G107R/I119L/I121M/I306V/K335N/L105A/L180Q/L300P/N151K/N90K/Q86E/Q94H/R106L/R138H/R89G/T104I/T345S/V100E/W191G/Y123F); assay: as above; details: 100% = same binding affinity as positive control peptide
Experimental: as §1, §2, §3, §4, §5, §6

HLA-B*07:02 = HLA-B*07:02 (Homo sapiens, UniProt P01889); assay: as above; details: 100% = same binding affinity as positive control peptide
Experimental: as §1, §2, §3, §4, §5, §6

HLA-A*01:01 = HLA-A*01:01 (Homo sapiens, UniProt P04439, A114D/A174V/A182V/D101N/D185E/E176A/E190D/L180R/Q94H/R68K/S129P/T187R/V100A/V91M/W191G); assay: as above; details: 100% = same binding affinity as positive control peptide
Experimental: as §1, §2, §3, §4, §5, §6

HLA-A*03:01 = HLA-A*03:01 (Homo sapiens, UniProt P04439); assay: as above; details: 100% = same binding affinity as positive control peptide
Experimental: as §1, §2, §3, §4, §5, §6

Sequence | Maximum Frequency of TNFα/IFNγ Double Positive CD4+30 T cells (CD8+ and CD4+ T cells) | Maximum fold change over ([1]; fold change over negative control, highest across the PBMC donors evaluated, 9 mer peptide) | Maximum frequency of TNFα+IFNγ+CD8+ T cells ([1]; greatest frequency among all tested PBMC donors, negative control 0.011-0.8) | Exchange rate with Pos peptide, HLA-A*02:01 (HLA-A*02:01) [%] | Exchange rate with Pos peptide, HLA-A*24:02 (HLA-A*24:02) [%] | Exchange rate with Pos peptide, HLA-B*07:02 (HLA-B*07:02) [%] | Exchange rate with Pos peptide, HLA-A*01:01 (HLA-A*01:01) [%] | Exchange rate with Pos peptide, HLA-A*03:01 (HLA-A*03:01) [%]
WKFEMSYTVGGPPPHVHARPRHWKTDR (listed as Homo sapiens) [AS18, splice variant NWD1] | 0.046 |  |  |  |  |  |  | 
YEAGMTLGGKILFFLFLLLPLSPFSLIF (listed as Homo sapiens) [Neoantigen P87, AR-Intron] | 0.079 | 3.24 | 0.120 | 64 | 0.2 | 5 | 1.1 | 2.4
DGHSYTSKVNCLLLQDGFHGCVSITGAAGRRNLSIFLFLMLCKLEFHAC (listed as Homo sapiens) [AS55, splice variant SPOCK1] | 0.063 |  |  |  |  |  |  | 
